Test results: publication PMC12167813, “Characterization of a two-component kinase that initiates the bacterial catabolism of hydroxyphenylethanones” (The Journal of Biological Chemistry, 2025)

Experiments:
[1] = tested on: T1, HpeHI; assay: continuous spectrophotometric assay, low-concentration rates verified by LC-MS; type: biochemical, Rhodococcus rhodochrous; conditions: apparent; 500 μM ATP, 2.0 mM MgCl2, 25 μM MnCl2, HEPES pH 7.5, I = 20 mM, 30 °C; 0.05 μM HpeH, 0.10 μM HpeI; upper bound
T1 construct: gene hpeH; two components made separately in E. coli, N-terminal His tags cut with TEV; phenolic site in HpeH
Text: continuous spectrophotometric assay, low-concentration rates verified by LC-MS on HpeHI

[2] = tested on: T1, HpeHI; assay: continuous spectrophotometric assay; type: biochemical, Rhodococcus rhodochrous; conditions: apparent; 500 μM ATP, 2.0 mM MgCl2, 25 μM MnCl2, HEPES pH 7.5, I = 20 mM, 30 °C; 0.05 μM HpeH, 0.10 μM HpeI
Text: continuous spectrophotometric assay on HpeHI

[3] = target: HpeH (Rhodococcus rhodochrous GD02); assay: mass photometry; Refeyn TwoMP; samples at 20 nM in the standard assay buffer (low ionic strength); acquisition 60 s
[4] = target: HpeH (Rhodococcus rhodochrous GD02); assay: SEC-MALS; Superdex 200; 50 µl of HpeH (12.5 µM), HpeI (25 µM) or both, incubated at room temperature for at least 20 min; 10 mM Hepes pH 7.5, 0.50 mM TCEP, 2.0 mM MgCl2, 0.25 mM MnCl2, with 20 mM or 200 mM NaCl; also with AMP-PNP

Compound | Km [1] [nM] | Km [2] [µM] | further results
CC(=O)c1ccc(O)cc1 [4-hydroxyacetophenone] | < 300 | – | –
O=Cc1ccc(O)cc1 [4-hydroxybenzaldehyde] | – | 9.6 | –
COc1cc(C(C)=O)ccc1O [acetovanillone] | < 300 | – | –
COc1cc(C=O)ccc1O [vanillin] | – | 10.3 | –
HpeH (enzyme) | – | – | stoichiometry N [3]: 2; stoichiometry N [4]: 2
